Experimental data taken from patent publication US10160762B2, “6-alkyl dihydropyrazolopyrimidinone compounds as PDE2 inhibitors” (Merck Sharp & Dohme Corp., priority 2015, dated 2018).
Where two headings read alike, the source gives them in different places.

Target: T1, human PDE2A1 (Homo sapiens, UniProt O00408)
T1 construct: GST; purchased BPS Bioscience (San Diego, Calif.) 60020; host or cells: insect cells
Assay: IMAP FP PDE assay, human PDE2A1
Assay type: biochemical
Method in brief: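 FP (IMAP) read after 60 min room-temperature reaction of insect-cell GST-human PDE2A1 with 50 nM FAM-cAMP plus 1000 nM cGMP (pH 7.2 Tris, Mg2+, DTT). Compounds titrated 3-fold over ten points. Apparent Ki derived assuming KM of 10,000 nM; enzyme at 20% substrate turnover.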

[1] = Lab A, read-out: Human PDE2 Ki (nM) Lab A
[2] = Lab B, read-out: Human PDE2 Ki (nM) Lab B

T1 sequence (O00408 1-920 isoform O00408-2): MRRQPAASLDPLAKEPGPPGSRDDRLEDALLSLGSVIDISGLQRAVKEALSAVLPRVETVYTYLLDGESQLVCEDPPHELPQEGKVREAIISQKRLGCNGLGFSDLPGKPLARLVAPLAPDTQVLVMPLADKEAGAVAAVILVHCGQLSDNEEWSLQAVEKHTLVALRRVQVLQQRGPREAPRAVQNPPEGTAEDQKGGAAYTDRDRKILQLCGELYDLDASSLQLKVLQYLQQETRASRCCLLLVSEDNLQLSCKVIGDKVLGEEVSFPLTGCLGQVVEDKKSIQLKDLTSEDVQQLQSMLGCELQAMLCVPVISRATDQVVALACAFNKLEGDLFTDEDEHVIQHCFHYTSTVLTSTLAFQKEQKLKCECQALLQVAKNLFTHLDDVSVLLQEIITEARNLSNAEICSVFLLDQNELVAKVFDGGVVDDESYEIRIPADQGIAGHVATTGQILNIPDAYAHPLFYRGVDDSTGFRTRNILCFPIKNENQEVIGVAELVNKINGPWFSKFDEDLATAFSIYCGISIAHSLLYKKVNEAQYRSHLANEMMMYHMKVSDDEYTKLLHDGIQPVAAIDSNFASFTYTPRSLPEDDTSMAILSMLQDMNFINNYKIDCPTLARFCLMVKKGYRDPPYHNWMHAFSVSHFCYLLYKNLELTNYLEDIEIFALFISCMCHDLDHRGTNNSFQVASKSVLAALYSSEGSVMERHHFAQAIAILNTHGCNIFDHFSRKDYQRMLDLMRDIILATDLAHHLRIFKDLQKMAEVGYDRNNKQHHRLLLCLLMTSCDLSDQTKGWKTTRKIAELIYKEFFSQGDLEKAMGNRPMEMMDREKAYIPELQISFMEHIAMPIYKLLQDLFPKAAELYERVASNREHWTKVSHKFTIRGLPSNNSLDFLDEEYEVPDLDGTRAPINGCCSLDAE

Compound	Ki [1]	Ki [2]
COc1ccc(Cc2nc3c(c(C)nn3C(C)c3ccc(C(F)(F)F)cc3)c(=O)[nH]2)cc1 (stereo not drawn) [Example 46, 6-(4-Methoxybenzyl)-3-methyl-1-{1-[4-(trifluoromethyl)phenyl]ethyl}-1,5-dihydro-4H-pyrazolo[3,4-d]pyrimidin-4-one]	8.6 nM	–
Cc1nc2c(c(CF)nn2C(c2ccc(C(F)(F)F)cc2)C(C)C)c(=O)[nH]1 (single isomer, unassigned) [Example 213, (S)- or (R)-3-(Fluoromethyl)-6-methyl-1-(2-methyl-1-(4-(trifluoromethyl)phenyl)propyl)-1H-pyrazolo[3,4-d]pyrimidin-4(5H)-one]	–	0.19 nM
COc1ccc(Cc2nc3c(c(C)nn3C(C)c3ccc(C(F)(F)F)cc3)c(=O)[nH]2)cc1OC (stereo not drawn) [Example 44, 6-(3,4-Dimethoxybenzyl)-3-methyl-1-{1-[4-(trifluoromethyl)phenyl]ethyl}-1,5-dihydro-4H-pyrazolo[3,4-d]pyrimidin-4-one]	2.1 nM	–
Cc1nc2c(c(CO)nn2C(c2ccc(C(F)(F)F)c(F)c2)C(C)(C)C)c(=O)[nH]1 (single isomer, unassigned) [Example 129, (S)- or (R)-1-(1-(3-Fluoro-4-(trifluoromethyl)phenyl)-2,2-dimethylpropyl)-3-(hydroxyl-methyl)-6-methyl-1H-pyrazolo-[3,4-d]pyrimidin-4(5H)-one]	–	8.9 nM
COc1cccc(-c2nc3c(c(C)nn3C(C)c3ccc(C(F)(F)F)cc3)c(=O)[nH]2)c1 (stereo not drawn) [Example 47, 6-(3-Methoxyphenyl)-3-methyl-1-{1-[4-(trifluoromethyl)phenyl]ethyl}-1,5-dihydro-4H-pyrazolo[3,4-d]pyrimidin-4-one]	17 nM	–
Cc1nc2c(c(CO)nn2C(C)c2ccc(OC(F)(F)F)c(F)c2)c(=O)[nH]1 (single isomer, unassigned) [Example 10, (R)- or (S)-1-(1-(3-Fluoro-4-(trifluoromethoxy)phenyl)ethyl)-3-(hydroxymethyl)-6-methyl-1H-pyrazolo[3,4-d]pyrimidin-4(5H)-one]	–	50 nM
Cc1nc2c(c(CF)nn2C(c2ccc(C(F)(F)F)cc2)C(C)C)c(=O)[nH]1 (single isomer, unassigned) [Example 212, (R)- or (S)-3-(Fluoromethyl)-6-methyl-1-(2-methyl-1-(4-(trifluoromethyl)phenyl)propyl)-1H-pyrazolo[3,4-d]pyrimidin-4(5H)-one]	–	43 nM
Cc1nc2c(c(CO)nn2C(C)c2ccc(OC(F)(F)F)c(F)c2)c(=O)[nH]1 (single isomer, unassigned) [Example 11, (S)- or (R)-1-(1-(3-Fluoro-4-(trifluoromethoxy)phenyl)ethyl)-3-(hydroxymethyl)-6-methyl-1H-pyrazolo[3,4-d]pyrimidin-4(5H)-one]	–	1.9 nM
CCC(CCCc1ccccc1)n1nc(C)c2c(=O)[nH]c(C)nc21 (stereo not drawn) [Example 338, 1-(1-ethyl-4-phenylbutyl)-3,6-dimethyl-1,5-dihydro-4H-pyrazolo[3,4-d]pyrimidin-4-one]	73 nM	–
Cc1nc2c(c(CF)nn2C(c2ccc(C(F)(F)F)cc2)C2(C)CC2)c(=O)[nH]1 (single isomer, unassigned) [Example 209]	–	0.99 nM
Cc1nc2c(c(CO)nn2[C@@H](c2ccc(C(C)(C)C)cc2)C(C)C)c(=O)[nH]1 [Example 160, (R)-1-(1-(4-tert-Butylphenyl)-2-methylpropyl)-3-(hydroxymethyl)-6-methyl-1H-pyrazolo[3,4-d]pyrimidin-4(5H)-one]	–	0.36 nM
Cc1nc(-c2nc3c(c(C)nn3C(C)c3ccc(C(F)(F)F)cc3)c(=O)[nH]2)c(C)o1 (stereo not drawn) [Example 54, 6-(2,5-Dimethyl-1,3-oxazol-4-yl)-3-methyl-1-{1-[4-(trifluoromethyl)phenyl]ethyl}-1,5-dihydro-4H-pyrazolo[3,4-d]pyrimidin-4-one]	12 nM	–
Cc1nc2c(c(CF)nn2C(C)c2ccc(OC(F)(F)F)cc2)c(=O)[nH]1 (single isomer, unassigned) [Example 206, (R)- or (S)-3-(Fluoromethyl)-6-methyl-1-(1-(4-(trifluoro-methoxy-)phenyl)ethyl)-1H-pyrazolo[3,4-d]pyrimidin-4(5H)-one]	–	83 nM
Cc1nc2c(c(CO)nn2C(C)c2ccc(OC(F)(F)F)cc2)c(=O)[nH]1 (stereo not drawn) [Example 4]	4.6 nM	5.9 nM
Cc1nc2c(c(CO)nn2C(C)c2ccc(C3CC3)cc2)c(=O)[nH]1 (stereo not drawn) [Example 3, 1-(1-(4-Cyclopropylphenl)ethyl)-3-(hydroxymethyl)-6-methyl-1H-pyrazolo[3,4-d]pyrimidin-4(5H)-one]	–	3.7 nM
Cc1nc2c(c(CO)nn2C(c2ccc(OC(F)(F)F)c(F)c2)C(C)C)c(=O)[nH]1 (single isomer, unassigned) [Example 126, (R)- or (S)-1-(1-(3-Fluoro-4-(trifluoromethoxy)phenyl)-2-methylpropyl)-3-(hydroxyl-methyl)-6-methyl-1H-pyrazolo-[3,4-d]pyrimidin-4(5H)-one]	–	5.7 nM
Cc1nc2c(c(CF)nn2C(C)c2ccc(C(F)(F)F)c(F)c2)c(=O)[nH]1 (stereo not drawn) [Example 230, 1-(1-(3-Fluoro-4-(trifluoromethyl)phenyl)ethyl)-3-(fluoromethyl)-6-methyl-1H-pyrazolo[3,4-d]pyrimidin-4(5H)-one]	1.5 nM	3.6 nM
Cc1nc2c(c(CF)nn2C(C)c2ccc(C(C)(C)C)cc2)c(=O)[nH]1 (single isomer, unassigned) [Example 214, (R)- or (S)-1-(1-(4-tert-Butylphenyl)ethyl)-3-(fluoromethyl)-6-methyl-1H-pyrazolo[3,4-d]pyrimidin-4(5H)-one]	–	307 nM
COc1cccc(Cc2nc3c(c(C)nn3C(C)c3ccc(C(F)(F)F)cc3)c(=O)[nH]2)c1 (stereo not drawn) [Example 45, 6-(3-Methoxybenzyl)-3-methyl-1-{1-[4-(trifluoromethyl)phenyl]ethyl}-1,5-dihydro-4H-pyrazolo[3,4-d]pyrimidin-4-one]	22 nM	–
Cc1nn(C(C)c2ccc(C(F)(F)F)cc2)c2nc(C3CCCC3)[nH]c(=O)c12 (stereo not drawn) [Example 40, 6-Cyclopentyl-3-methyl-1-{1-[4-(trifluoromethyl)phenyl]ethyl}-1,5-dihydro-4H-pyrazolo[3,4-d]pyrimidin-4-one]	197 nM	–
Cc1nc2c(c(CO)nn2C(C)c2ccc(C(F)(F)F)cc2)c(=O)[nH]1 (stereo not drawn) [Example 7, 3-(Hydroxymethyl)-6-methyl-1-(1-(4-(trifluoromethyl)phenyl)ethyl)-1H-pyrazolo[3,4-d]pyrimidin-4(5H)-one]	11 nM	17 nM
